Assay results as given in article PMC9166630, “SAR Probing of KX2-391 Provided Analogues With Juxtaposed Activity Profile Against Major Oncogenic Kinases” (Frontiers in Oncology, 2022).
In brackets after ≈: the same amount, converted by molar mass. Read-outs that look alike come from different tables or passages of the source.

How the values were obtained:
[1] = Maximum kinetic aqueous solubility; format: physicochemical; settings: 2% DMSO/PBS, pH 7.4, read-out: Max. aq. Sol.
Procedure: Solubility assays were performed using Millipore MultiScreen® HTS-PFC Filter Plates designed for solubility assays (EMD Millipore, Billerica, MA). Assays were run in triplicate. The 96-well plates consist of two chambers separated by a filter. Liquid handling was performed using JANUS® Verispan and MTD workstations (Perkin Elmer, Waltham, MA). 4 µL of 4e or 4n solution (10 mM in DMSO) was added to 196 µL of phosphate buffer (45 mM potassium phosphate, 45 mM sodium acetate, 45 mM ethanolamine, pH = 7.4) in the top chamber to give a final DMSO concentration of 2% and a theoretical drug concentration of 200 µM. Plates were gently shaken for 90 min and then subjected to vacuum. Insoluble drug is captured on the filter. 160 µL of the filtrate is transferred to 96-well Griener UV Star® analysis plates (Sigma–Aldrich, St. Louis, MO) containing 40 µL of acetonitrile. The test compound concentration in the filtrate is measured by UV absorbance on a Spectromax® Plus microplate reader (Molecular Devices, Sunnyvale, CA) using Softmax Pro software v.5.4.5. Absorbances at 5 wavelengths (280, 300, 320, 340, and 360 nm) were summed to generate the UV signal. Standard curves were generated by adding 4 µL of five concentrations of test compound in DMSO to 40 µL of acetonitrile in UV Star plates followed by 156 µL of the appropriate solubility medium. Analysis and statistics were performed using GraphPad® Prism v.5.04. Data were reported as the maximum concentration observed in the filtrate.

[2] = system: MCF7 (breast) cancer cells; assay: SRB cytotoxicity assay, MCF7; format: cell-based, human; settings: Homo sapiens, MCF7, 72 h, maximum tested concentration 50 µM, read-out: IC50 ± SEM, MCF7
Procedure: MCF7 (breast) or N87 (stomach) cancer cells were grown in Roswell Park Memorial Institute-1640 (RPMI-1640) medium (Thermo Fisher Scientific, Inc; Waltham, MA, USA), supplemented with 10% heat inactivated fetal bovine serum (FBS), 50 units/mL of penicillin and […] of streptomycin and maintained at 37°C in a humidified atmosphere containing 5% CO2. The cells were maintained as “monolayer culture” by serial subculturing.
Cytotoxicity was determined using Sulforhodamine B (SRB) method as previously described by Skehan et al. ([66]). Exponentially growing MCF7 and N87 cells were collected using 0.25% Trypsin-EDTA and were then seeded in 96-well plates at a density of 1000-2000 cells/well in 10% FBS and penicillin/streptomycin supplemented RPMI-1640 medium. After 24 h, cells were treated with different concentrations of test compounds and incubated for 72 h at 37°C in a humidified atmosphere containing 5% CO2. Next, the cells were fixed by adding trichloroacetic acid (TCA, 10% final conc. in wells) directly to the wells and incubated for 1 h at 4°C, then cells were washed with distilled water 5 times to remove excess TCA, media, serum proteins, and metabolites, followed by air drying. After that, the fixed cells were stained with 0.4% SRB dissolved in 1% acetic acid for 10 min at room temperature, and excess stain was removed by quickly rinsing with 1% acetic acid. The residual acetic acid was removed completely by air drying the plates for 24 h, and the dye was solubilized with Tris buffer (pH= 7.4, 10 mM) for 5 min on a shaker at 1600 rpm. The optical density (OD) of each well was measured spectrophotometrically at 564 nm with an ELISA microplate reader (ChroMate-4300, FL, USA). The IC50 values (concentration of drug resulting in 50% reduction in cell survival) were calculated according to the equation for Boltzman sigmoidal concentration–response curve using the nonlinear regression fitting models (Graph Pad, Prism Version 5).

[3] = system: K562 leukemia cell line; assay: CellTiter-Blue cell viability assay, K562; format: cell-based; settings: Homo sapiens, CellTiter-Blue, 48 h, maximum tested concentration 20 µM, read-out: IC50 ± SEM, K562
Procedure: (§1) HL60, K562, MV4-11 and NB4 were purchased from CLS Cell Line Service GmbH (Eppelheim, Germany). All cell lines were cultured in RPMI-1640 medium supplemented with 10% fetal bovine serum (FBS) (Thermo Fisher Scientific) and 0.1% ciprofloxacin (2.5mg/ml; Cipla Limited; Mumbai, India), and were maintained at 37°C in the presence of 21% O2 and 5% CO2.
(§2) Cell viability was determined using the CellTiter®-Blue Cell Viability Assay kit (Promega, Madison, WI, USA). Approximately 10^4 cells were counted and plated in a 96-well plate in the presence of test compounds ranging from 0.01 to 10 or 20 µM in triplicate and were incubated for 48 h at 37°C in a humidified incubator. After the incubation period was complete, 20 µL of CellTiter®-Blue Cell Viability Assay reagent was added to each well and incubated for additional 2 h for the development of florescence. Florescence was measured at Ex/Em 540/590 on SpectraMax® i3 Multi-Mode microplate reader (Molecular Devices, LLC; San Jose, CA, USA) and plotted against drug concentration to determine the IC50 of the test compounds. The IC50 was obtained by non-linear regression model using GraphPad Prism 6.07 (GraphPad Software, Inc, USA).

[4] = system: HL60 leukemia cell line; assay: CellTiter-Blue cell viability assay, HL60; format: cell-based; settings: Homo sapiens, HL-60; CellTiter-Blue, 48 h; maximum tested concentration 20 µM; read-out: IC50 ± SEM, HL60
Procedure: as §1, §2

[5] = molecular target: T1, CYP2C9 (Homo sapiens, UniProt P11712); assay: Inhibition assay of human CYP450 enzymes, 2C9; format: in vitro ADME; settings: for IC50: fluorescent substrate; for no inhibition of CYP2C9 at concentrations up to: the values are: IC50
T1 construct: purchased Fisher Scientific; host or cells: insect cells (supersomes)
T1 sequence (P11712 whole entry): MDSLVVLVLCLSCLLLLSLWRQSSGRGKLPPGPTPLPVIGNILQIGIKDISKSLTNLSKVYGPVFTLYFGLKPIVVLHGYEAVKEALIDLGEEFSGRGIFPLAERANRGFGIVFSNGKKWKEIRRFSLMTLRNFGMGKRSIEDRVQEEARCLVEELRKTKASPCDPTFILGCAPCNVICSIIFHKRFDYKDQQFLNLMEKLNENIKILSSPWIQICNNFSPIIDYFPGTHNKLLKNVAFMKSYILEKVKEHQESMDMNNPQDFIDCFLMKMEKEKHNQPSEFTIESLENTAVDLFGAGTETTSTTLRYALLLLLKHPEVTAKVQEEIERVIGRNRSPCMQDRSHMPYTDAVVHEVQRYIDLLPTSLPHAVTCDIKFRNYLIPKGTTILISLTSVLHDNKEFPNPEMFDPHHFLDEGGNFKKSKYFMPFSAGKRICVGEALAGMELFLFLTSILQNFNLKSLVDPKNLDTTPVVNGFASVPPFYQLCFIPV
Procedure: The two compounds 4e and 4n were assessed for their ability to inhibit the three major human CYP450 enzymes, 3A4, 2D6 and 2C9. Assays were run in triplicate. Expressed enzymes in insect supersomes (Fisher Scientific, Waltham, MA) were used to minimize non-specific binding and membrane partitioning issues ([68]). The 3A4 assay uses testosterone as a substrate and analysis was performed by LC/MS/MS on a Waters Xevo TQ instrument as described above using positive electrospray ionization. Assay acceptance criteria was 20% for all standards and 25% for the LLOQ. The 2D6 and 2C9 assays use fluorescent substrates (3-[2-(N,N-diethylamino)ethyl]-7-methoxy-4-methylcoumarin for 2D6; 7-methoxy-4-(trifluoromethyl)coumarin for 2C9) and were analyzed on an Envision plate reader. GraphPad® Prism v 5.04 was used for nonlinear fitting of data to generate IC50 values.

[6] = phosphate buffer with 2% DMSO, aqueous buffer, kinetic from dmso stock

SMILES | solubility kinetic at 90 min [1, 6] [µM] | IC50 [2] [µM] | IC50 [3] [µM] | IC50 [4] [nM] | IC50 [5] [µM] | no inhibition of CYP2C9 at concentrations up to [5] [µM] | solubility kinetic at 90 min [1] [µM]
O=C(Cc1ccc(NC(=O)c2cccc(Cl)n2)cc1)NCc1ccccc1 [Compound 4n, N-(4-(2-(benzylamino)-2-oxoethyl)phenyl)-6-chloropicolinamide] | 2.6 (≈ 0.988 µg/mL) | 0.25 | 2.69 ± 0.65 | 2220 ± 60 | > 10 | > 10 | 
O=C(Cc1ccc(NC(=O)c2cccc(Cl)c2)cc1)NCc1ccccc1 [Compound 4e, N-(4-(2-(benzylamino)-2-oxoethyl)phenyl)-3-chlorobenzamide] | < 2 | 7.41 ± 2.8 | 4.23 ± 0.2 | 1620 ± 130 | > 10 | > 10 | < 2.0
